What is called IC50 is the concentration that inhibits the measured activity by half.

Data on five compounds can be found in patent US9624205B2, “Substituted 6,5-fused bicyclic heteroaryl compounds” (Epizyme, Inc., priority 2013, dated 2017).

Test [1] addresses wild-type PRC2 enzyme (WT EZH2) (Homo sapiens (Human), UniProt Q15910). Nature of the test: PRC2 enzyme assay on peptide substrate, wild-type EZH2. It counts as biochemical. The conditions noted are these: wild-type PRC2, H3K27me0 peptide substrate. The source says:
(§1) Protocol for Wild-Type and Mutant PRC2 Enzyme Assays
(§2) Peptides representative of human histone H3 residues 21-44 containing either an unmodified lysine 27 (H3K27me0) or dimethylated lysine 27 (H3K27me2) are synthesized with a C-terminal G(K-biotin) linker-affinity tag motif and a C-terminal amide cap by 21st Century Biochemicals. […] The sequences are listed below.
(§3) Human PRC2 enzymes are purified as 4-component enzyme complexes co-expressed in Spodoptera frugiperda (sf9) cells using a baculovirus expression system. […] The EED subunit contains an N-terminal FLAG tag that is used to purify the entire 4-component complex from sf9 cell lysates.
(§4) The assays are all performed in a buffer consisting of 20 mM bicine (pH=7.6), 0.5 mM DTT, 0.005% BSG and 0.002% Tween20, prepared on the day of use. Compounds in 100% DMSO (1 μL) are spotted into polypropylene 384-well V-bottom plates (Greiner) using a Platemate 2×3 outfitted with a 384-channel pipet head (Thermo). DMSO (1 μL) is added to columns 11, 12, 23, 24, rows A-H for the maximum signal control, and SAH, a known product and inhibitor of PRC2 (1 μL) is added to columns 11, 12, 23, 24, rows I-P for the minimum signal control. A cocktail (4 μL) containing the wild-type PRC2 enzyme and H3K27me0 peptide or any of the Y641 mutant enzymes and H3K27me2 peptide is added by Multidrop Combi (Thermo). The compounds are allowed to incubate with PRC2 for 30 min at 25° C., then a cocktail (10 μL) containing a mixture of non-radioactive and ^3H-SAM is added to initiate the reaction (final volume=[…]). In all cases, the final concentrations are as follows: wild-type or mutant PRC2 enzyme was 4 nM, SAH in the minimum signal control wells was 1 mM and the DMSO concentration was 1%. The assays are stopped by the addition of non-radioactive SAM (10 μL) to a final concentration of 600 μM, which dilutes the ^3H-SAM to a level where its incorporation into the peptide substrate is no longer detectable. 5 μL of the reaction in the 384-well polypropylene plate is then transferred to a 384-well Flashplate and the biotinylated peptides are allowed to bind to the streptavidin surface for at least 1 h before being washed three times with 0.1% Tween20 in a Biotek ELx405 plate washer. The plates are then read in a PerkinElmer TopCount platereader to measure the quantity of ^3H-labeled peptide bound to the Flashplate surface, measured as disintegrations per minute (dpm) or alternatively, referred to as counts per minute (cpm).
(§5) Where top and bottom are the normally allowed to float, but may be fixed at 100 or 0 respectively in a 3-parameter fit. The Hill Coefficient normally allowed to float but may also be fixed at 1 in a 3-parameter fit. Y is the % inhibition and X is the compound concentration.

The target in test [2] is Y641F mutant PRC2 enzyme (EZH2 Y641F) (Homo sapiens (Human), UniProt Q15910, Y641F). Nature of the test: PRC2 enzyme assay on peptide substrate, EZH2 Y641F mutant. The conditions noted are these: EZH2 Y641F PRC2, H3K27me2 peptide substrate. The test is classed as biochemical.
Chain of Y641F mutant PRC2 enzyme (EZH2 Y641F) (Q15910 whole entry Y641F): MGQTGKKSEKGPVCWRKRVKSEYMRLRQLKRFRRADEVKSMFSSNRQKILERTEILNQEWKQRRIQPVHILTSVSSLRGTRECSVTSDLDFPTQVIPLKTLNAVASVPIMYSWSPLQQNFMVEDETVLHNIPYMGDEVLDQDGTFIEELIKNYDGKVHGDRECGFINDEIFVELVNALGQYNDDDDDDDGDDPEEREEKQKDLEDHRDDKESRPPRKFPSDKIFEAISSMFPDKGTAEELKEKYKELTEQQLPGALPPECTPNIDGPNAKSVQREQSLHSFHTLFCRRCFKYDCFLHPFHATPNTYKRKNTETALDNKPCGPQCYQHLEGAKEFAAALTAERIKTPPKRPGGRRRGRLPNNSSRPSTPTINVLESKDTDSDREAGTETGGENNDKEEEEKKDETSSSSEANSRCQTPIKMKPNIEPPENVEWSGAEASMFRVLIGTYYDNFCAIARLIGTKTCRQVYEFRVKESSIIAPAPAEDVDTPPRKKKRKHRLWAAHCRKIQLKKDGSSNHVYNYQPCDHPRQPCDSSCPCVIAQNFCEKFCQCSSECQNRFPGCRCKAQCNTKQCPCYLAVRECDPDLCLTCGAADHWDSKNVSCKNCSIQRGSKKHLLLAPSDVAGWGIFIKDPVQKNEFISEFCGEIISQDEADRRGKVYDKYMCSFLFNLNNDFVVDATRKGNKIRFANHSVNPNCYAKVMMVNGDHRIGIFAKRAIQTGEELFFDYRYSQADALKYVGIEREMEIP
Chain of Y641F mutant PRC2 enzyme (EZH2 Y641F) (O75530 whole entry partner): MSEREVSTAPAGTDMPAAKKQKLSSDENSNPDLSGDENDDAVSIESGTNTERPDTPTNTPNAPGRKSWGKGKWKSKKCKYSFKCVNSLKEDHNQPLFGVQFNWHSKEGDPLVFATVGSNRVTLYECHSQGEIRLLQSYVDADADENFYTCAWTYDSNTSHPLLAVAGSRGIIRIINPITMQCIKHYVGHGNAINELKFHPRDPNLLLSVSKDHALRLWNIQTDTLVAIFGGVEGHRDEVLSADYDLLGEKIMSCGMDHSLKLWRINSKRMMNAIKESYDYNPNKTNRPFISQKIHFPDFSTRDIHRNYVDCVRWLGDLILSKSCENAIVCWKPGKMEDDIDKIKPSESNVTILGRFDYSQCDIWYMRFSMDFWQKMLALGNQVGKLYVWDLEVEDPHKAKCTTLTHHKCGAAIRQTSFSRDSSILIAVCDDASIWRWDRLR
Chain of Y641F mutant PRC2 enzyme (EZH2 Y641F) (Q15022 whole entry partner): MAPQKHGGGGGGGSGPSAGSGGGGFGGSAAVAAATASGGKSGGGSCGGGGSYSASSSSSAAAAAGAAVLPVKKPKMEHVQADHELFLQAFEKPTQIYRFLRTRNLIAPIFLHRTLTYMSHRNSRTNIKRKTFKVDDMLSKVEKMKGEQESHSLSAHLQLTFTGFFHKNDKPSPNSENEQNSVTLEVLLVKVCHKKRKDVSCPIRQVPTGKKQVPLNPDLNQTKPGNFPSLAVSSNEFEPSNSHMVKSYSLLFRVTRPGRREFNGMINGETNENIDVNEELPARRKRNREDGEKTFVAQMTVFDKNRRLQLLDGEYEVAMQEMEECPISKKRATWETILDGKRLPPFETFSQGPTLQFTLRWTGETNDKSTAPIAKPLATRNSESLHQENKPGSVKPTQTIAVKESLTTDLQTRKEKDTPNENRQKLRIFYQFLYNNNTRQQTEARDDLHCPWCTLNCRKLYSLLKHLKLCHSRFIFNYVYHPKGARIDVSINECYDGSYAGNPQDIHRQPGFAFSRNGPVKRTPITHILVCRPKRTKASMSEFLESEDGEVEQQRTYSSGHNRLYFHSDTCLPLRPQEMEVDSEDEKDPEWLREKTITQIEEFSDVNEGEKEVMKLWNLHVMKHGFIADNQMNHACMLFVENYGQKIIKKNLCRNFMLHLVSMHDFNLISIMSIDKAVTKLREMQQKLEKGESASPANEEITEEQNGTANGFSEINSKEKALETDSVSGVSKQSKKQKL
Chain of Y641F mutant PRC2 enzyme (EZH2 Y641F) (Q09028 whole entry partner): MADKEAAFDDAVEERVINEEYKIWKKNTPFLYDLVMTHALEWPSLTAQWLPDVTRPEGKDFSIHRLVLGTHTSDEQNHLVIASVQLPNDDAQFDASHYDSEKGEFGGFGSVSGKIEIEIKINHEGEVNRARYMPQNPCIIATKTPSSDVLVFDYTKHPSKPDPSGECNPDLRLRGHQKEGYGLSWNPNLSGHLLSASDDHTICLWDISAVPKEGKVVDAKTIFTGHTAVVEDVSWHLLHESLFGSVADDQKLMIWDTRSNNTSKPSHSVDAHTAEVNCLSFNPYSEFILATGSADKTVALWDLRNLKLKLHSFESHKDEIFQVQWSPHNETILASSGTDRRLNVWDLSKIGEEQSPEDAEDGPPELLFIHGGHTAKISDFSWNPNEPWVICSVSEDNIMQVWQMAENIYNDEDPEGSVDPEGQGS
Text: as §1, §2, §3, §4, §5

Chain of wild-type PRC2 enzyme (WT EZH2) (Q15910 whole entry): as the sequence (Q15910 whole entry Y641F) above, with F641Y counted along it
Chain of wild-type PRC2 enzyme (WT EZH2) (O75530 whole entry partner): as the sequence (O75530 whole entry partner) above
Chain of wild-type PRC2 enzyme (WT EZH2) (Q15022 whole entry partner): as the sequence (Q15022 whole entry partner) above
Chain of wild-type PRC2 enzyme (WT EZH2) (Q09028 whole entry partner): as the sequence (Q09028 whole entry partner) above

For `COc1nn(C)c(C)c1CNC(=O)c1c(C)n(C(C)C2CCOCC2)c2ccccc12` (stereo not shown) [Compound 1, N-((3-methoxy-1,5-dimethyl-1H-pyrazol-4-yl)methyl)-2-methyl-1-(1-(tetrahydro-2H-pyran-4-yl)ethyl)-1H-indole-3-carboxamide], the IC50 in test [1] was above 50 µM; in test [2], 28 µM.

Consider `Cc1c(CNC(=O)c2c(C)n(C(C)C3CCOCC3)c3ccccc23)c(=O)[nH]n1C` (stereo not shown) [Compound 2, N-((1,5-dimethyl-3-oxo-2,3-dihydro-1H-pyrazol-4-yl)methyl)-2-methyl-1-(1-(tetrahydro-2H-pyran-4-yl)ethyl)-1H-indole-3-carboxamide], for which the IC50 in test [1] and in test [2] was above 50 µM throughout.

For the compound `CCC(C)n1cc(C)c2c(C(=O)NCc3c(OC)nn(C)c3C)cc(-c3ccc(N4CCNCC4)nc3)cc21` (stereo not shown) [Compound 3, 1-(sec-butyl)-N-((3-methoxy-1,5-dimethyl-1H-pyrazol-4-yl)methyl)-3-methyl-6-(6-(piperazin-1-yl)pyridin-3-yl)-1H-indole-4-carboxamide], the figures for the IC50 in test [1] and in test [2] were 4.33 µM and 0.548 µM, respectively.

Take `CCC(C)n1cc(C)c2c(C(=O)NCc3c(C)n(C)[nH]c3=O)cc(-c3ccc(N4CCNCC4)nc3)cc21` (stereo not shown) [Compound 4, 1-(sec-butyl)-N-((1,5-dimethyl-3-oxo-2,3-dihydro-1H-pyrazol-4-yl)methyl)-3-methyl-6-(6-(piperazin-1-yl)pyridin-3-yl)-1H-indole-4-carboxamide]: the IC50 was determined as 5.63 µM in test [1] and 1.1 µM in test [2].

As to `CCC(C)n1cc(C)c2c(C(=O)NCc3c(OC)nn(CC)c3C)cc(-c3ccc(N4CCNCC4)nc3)cc21` (stereo not shown) [Compound 5, 1-(sec-butyl)-N-((1-ethyl-3-methoxy-5-methyl-1H-pyrazol-4-yl)methyl)-3-methyl-6-(6-(piperazin-1-yl)pyridin-3-yl)-1H-indole-4-carboxamide], the IC50 in test [1] turned out to be 22 µM; in test [2] it was 1.99 µM.
